Read-outs that look alike come from different tables or passages of the source.
What was measured:
HRAS wild-type protein = HRAS wild-type protein (Homo sapiens, UniProt P01112); assay: Binding to HRAS by surface plasmon resonance (SPR), KD and KD ratio to KRAS
Outline: (§1)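 GDP-bound biotin-Avi RAS captured at ~100–300 RU, 30°C, pH 7.4 HBS containing 10 µM GDP, 10 mM MgCl2, 1 mM DTT, 0.01% Tween 20 and 4% DMSO. KD by 1:1 fitting.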

[1] = biological target: GDP-bound KRAS wild-type protein (Homo sapiens, UniProt P01116); assay: Binding to KRAS by surface plasmon resonance (SPR), dissociation constant KD; settings: 1:1 binding model
Chain of GDP-bound KRAS wild-type protein (P01116 1-188 isoform P01116-2): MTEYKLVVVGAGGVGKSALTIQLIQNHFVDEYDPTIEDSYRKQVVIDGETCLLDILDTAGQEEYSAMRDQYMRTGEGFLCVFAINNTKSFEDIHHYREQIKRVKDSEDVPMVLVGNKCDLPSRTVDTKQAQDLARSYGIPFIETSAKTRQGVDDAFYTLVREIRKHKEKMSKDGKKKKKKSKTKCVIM
Outline: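 GDP-loaded biotinylated Avi-tag RAS proteins (E. coli-expressed) captured on a Biotin CAPture chip at ~100–300 RU; single-cycle kinetics at 30°C, 100 µL/min, 75 s injections of rising compound concentrations. HBS pH 7.4 running buffer with 1 mM DTT, 10 mM MgCl2, 10 µM GDP, 4% DMSO. KD from 1:1 binding fit.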

[2] = system: human lung cancer strain NCI-H441; format: cell-based
Outline: (§2)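 Readout: […] after the ATP-based reagent. Compound: serial dilutions in dimethyl sulfoxide.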

[3] = system: human gastric cancer strain GSU; format: cell-based
Description: (§3) A test compound was dispensed into a U-bottom 384-well plate as 40 nL serially diluted dimethyl sulfoxide solutions using a liquid handler Echo (LABCYTE). As for human gastric cancer strain GSU (Institute of Physical and Chemical Research), a cell suspension was prepared so as to have 200 cells/40 µL in an RPMI-1640 medium (Sigma) supplemented with 10% fetal bovine serum (Sigma). This cell suspension was dispensed in an amount of 40 µL per well into a plate containing the test compound, and cultured at 37°C in a 5% carbon dioxide gas incubator. Seven days later, 20 µL of CellTiter-Glo (registered trademark) (Promega) was added to each well and luminescence was measured.

[4] = biological target: GDP-bound NRAS wild-type protein (Homo sapiens, UniProt P01111); assay: Binding to NRAS by surface plasmon resonance (SPR), KD and KD ratio to KRAS
Chain of GDP-bound NRAS wild-type protein (P01111 whole entry): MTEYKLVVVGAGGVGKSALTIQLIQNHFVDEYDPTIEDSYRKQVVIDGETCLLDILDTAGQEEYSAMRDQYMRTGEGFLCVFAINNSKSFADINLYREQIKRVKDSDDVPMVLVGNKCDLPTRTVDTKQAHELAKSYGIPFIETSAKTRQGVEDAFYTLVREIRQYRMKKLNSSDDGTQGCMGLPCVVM
Outline: as §1

[5] = system: human gastric cancer strain SNU-1; format: cell-based
Description: as §3, with “SNU-1 (ATCC),” for “GSU (Institute of Physical and Chemical Research),”, “250” for “200”, “(Sigma), a 2.5 g/L D-(+)-glucose solution, 10 mmol/L HEPES, and 1 mmol/L sodium pyruvate.” for “(Sigma).”

[6] = system: human ovarian cancer strain OV7; format: cell-based
Description: A test compound was dispensed into a U-bottom 384-well plate as 40 nL serially diluted dimethyl sulfoxide solutions using a liquid handler Echo (LABCYTE). As for human ovarian cancer strain OV7 (ECACC), a cell suspension was prepared so as to have 250 cells/40 µL in a DMEM/Ham's F-12 medium (Nacalai Tesque) supplemented with 5% fetal bovine serum (Sigma), 0.5 µg/mL hydrocortisone, and 10 µg/mL insulin. This cell suspension was dispensed in an amount of 40 µL per well into a plate containing the test compound, and cultured at 37°C in a 5% carbon dioxide gas incubator. Seven days later, 20 µL of CellTiter-Glo (registered trademark) (Promega) was added to each well and luminescence was measured.

[7] = system: human bladder cancer strain UM-UC-3; format: cell-based
Description: A test compound was dispensed into a U-bottom 384-well plate as 40 nL serially diluted dimethyl sulfoxide solutions using a liquid handler Echo (LABCYTE). As for human bladder cancer strain UM-UC-3 (ATCC), a cell suspension was prepared so as to have 250 cells/40 µL in an MEM medium (Nacalai Tesque) supplemented with 10% fetal bovine serum (Sigma), an MEM non-essential amino acids solution (100X), and 1 mmol/L sodium pyruvate. This cell suspension was dispensed in an amount of 40 µL per well into a plate containing the test compound, and cultured at 37°C in a 5% carbon dioxide gas incubator. Seven days later, 20 µL of CellTiter-Glo (registered trademark) (Promega) was added to each well and luminescence was measured. […]

[8] = system: human pancreatic cancer strain KP4; format: cell-based
Description: as §3, with “human pancreatic” for “human gastric”, “strain KP4” for “strain GSU”, “have 500” for “have 200”, “in a DMEM/Ham's F-12” for “in an RPMI-1640”, “medium (Nacalai Tesque)” for “medium (Sigma)”

[9] = system: human colorectal cancer strain GP2d; format: cell-based
Description: as §3, with “colorectal” for “gastric”, “GP2d (ECACC),” for “GSU (Institute of Physical and Chemical Research),”, “500” for “200”, “a Dulbecco's modified Eagle” for “an RPMI-1640”, “medium” for “medium (Sigma)”

[10] = system: human lung cancer strain NCI-H441; assay: NCI-H441 cell proliferation inhibitory activity (CellTiter-Glo, 4 days); format: cell-based; settings: read-out: NCl-H441 IC50
Outline: as §2

[11] = ratio of KD for HRAS wild-type protein to KD for KRAS
[12] = ratio of KD for GDP-bound NRAS wild-type protein to KD for KRAS

Chain of HRAS wild-type protein (P01112 whole entry): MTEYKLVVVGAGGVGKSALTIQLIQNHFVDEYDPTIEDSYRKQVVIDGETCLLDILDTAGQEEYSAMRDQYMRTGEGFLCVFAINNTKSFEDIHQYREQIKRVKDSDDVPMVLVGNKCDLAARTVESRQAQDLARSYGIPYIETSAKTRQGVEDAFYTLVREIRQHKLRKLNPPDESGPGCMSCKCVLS

SMILES	Kd [1]	IC50 [2]	IC50 [3]	IC50 [5]	IC50 [6]	IC50 [7]	IC50 [8]	IC50 [9]	IC50 ([10]; NCI-H441 cells, 4 days)	IC50 ([10]; 50% proliferation inhibitory concentration, four days)	Kd ([1]; Single Cycle Kinetics)	HRAS /KRAS (HRAS wild-type protein; [11])	NRAS /KRAS [4, 12]	HRAS /KRAS (HRAS wild-type protein; ratio of the KD value with respect to HRAS wild-type protein to the KD value with respect to KRAS)	NRAS /KRAS ([4]; ratio of the KD value with respect to GDP-bound NRAS wild-type protein to the KD value with respect to KRAS)	HRAS /KRAS (HRAS wild-type protein; ratio of KD with respect to HRAS wild-type protein to KD with respect to KRAS)	NRAS /KRAS ([4]; ratio of KD with respect to GDP-bound NRAS wild-type protein to KD with respect to KRAS)
CCO[C@@H]1C[C@H]2C(=O)NC3(CC(C)(C)C3)C(=O)N(C)[C@@H](CC(C)(C)C)C(=O)N(C)[C@H](C(=O)N(C)C)CC(=O)N(C)[C@@H](COC)C(=O)N[C@@H]([C@@H](C)CC)C(=O)N(C3CC3)CC(=O)N(C)[C@H]3C/C=C\CCN(C3=O)[C@@H](Cc3ccc(C(F)(F)F)cc3)C(=O)N(C)CC(=O)N[C@@H](CCc3ccc(Cl)c(Cl)c3)C(=O)N2C1 [PP2750, (2S,8S,12R,14S,20S,23S,27S,30S,36S,38Z)-32-cyclopropyl-8-[2-(3,4-dichlorophenyl)ethyl]-20-(2,2-dimethylpropyl)-12-ethoxy-27-(methoxymethyl)-N,N,3',3',4,19,22,26,35-nonamethyl-30-[(1S)-1-methylpropyl]-3,6,9,15,18,21,25,28,31,34,42-undecaoxo-2-[[4-(trifluoromethyl)phenyl]methyl]spiro[1,4,7,10,16,19,22,26,29,32,35-undecazatricyclo[34.5.1.0^10,14]dotetracont-38-ene-17,1'-cyclobutane]-23-carboxamide]	0.54 nM	19 nM	1.9 nM	24.2 nM	31.8 nM	20.6 nM	56 nM	23.6 nM	–	–	–	A (a compound having 10 or more and less than 20 is denoted as A)	AA (a compound having 20 or more is denoted as AA)	–	–	–	–
CCO[C@@H]1C[C@H]2C(=O)NC3(CCC3)C(=O)N(C)[C@@H](C3CCCC3)C(=O)N(C)[C@H](C(=O)N3CCOCC3)CC(=O)N(C)[C@@H](Cc3ccsc3)C(=O)N[C@@H]([C@@H](C)CC)C(=O)N(C)CC(=O)N(C)[C@H]3CCCCCN(C3=O)[C@@H](Cc3ccc(F)cc3)C(=O)N(C)CC(=O)N[C@@H](CCc3cc(F)c(C(F)(F)F)c(F)c3)C(=O)N2C1 [PP1184]	–	–	–	–	–	–	–	–	–	91.9 nM	0.16 nM	–	–	–	–	B (a compound having 3 or more and less than 10 is denoted as B)	B (a compound having 3 or more and less than 10 is denoted as B)

More lines, main results first:

Kd [1]	IC50 [2]	IC50 [3]	IC50 [5]	IC50 [6]	IC50 [7]	IC50 [8]	IC50 [9]	IC50 ([10]; NCI-H441 cells, 4 days)	IC50 ([10]; 50% proliferation inhibitory concentration, four days)	Kd ([1]; Single Cycle Kinetics)	SMILES	HRAS /KRAS (HRAS wild-type protein; [11])	NRAS /KRAS [4, 12]	HRAS /KRAS (HRAS wild-type protein; ratio of the KD value with respect to HRAS wild-type protein to the KD value with respect to KRAS)	NRAS /KRAS ([4]; ratio of the KD value with respect to GDP-bound NRAS wild-type protein to the KD value with respect to KRAS)	HRAS /KRAS (HRAS wild-type protein; ratio of KD with respect to HRAS wild-type protein to KD with respect to KRAS)	NRAS /KRAS ([4]; ratio of KD with respect to GDP-bound NRAS wild-type protein to KD with respect to KRAS)
–	11.1 nM	1.2 nM	6.6 nM	23.6 nM	11.5 nM	16.8 nM	13.7 nM	–	–	–	CCO[C@@H]1C[C@H]2C(=O)NC3(CCCC3)C(=O)N(C)[C@@H](C3CCCC3)C(=O)N(C)[C@H](C(=O)N(C)C)CC(=O)N(C)[C@@H](CC(C)C)C(=O)N[C@@H]([C@@H](C)CC)C(=O)N(C)CC(=O)N(C)[C@H]3C/C(F)=C\CCN(C3=O)[C@@H](Cc3ccc(C(F)(F)F)cc3)C(=O)N(C)CC(=O)N[C@@H](CCc3cc(F)c(C(F)(F)F)c(F)c3)C(=O)N2C1 [PP3510, (2S,8S,12R,14S,20S,23S,27S,30S,36S,38E)-20-cyclopentyl-8-[2-[3,5-difluoro-4-(trifluoromethyl)phenyl]ethyl]-12-ethoxy-38-fluoro-27-isobutyl-N,N,4,19,22,26,32,35-octamethyl-30-[(1S)-1-methylpropyl]-3,6,9,15,18,21,25,28,31,34,42-undecaoxo-2-[[4-(trifluoromethyl)phenyl]methyl]spiro[1,4,7,10,16,19,22,26,29,32,35-undecazatricyclo[34.5.1.0^10,14]dotetracont-38-ene-17,1'-cyclopentane]-23-carboxamide]	B (a compound having 3 or more and less than 10 is denoted as B)	B (a compound having 3 or more and less than 10 is denoted as B)	–	–	–	–
–	0.6 nM	1.2 nM	5.6 nM	8.7 nM	1.3 nM	4.8 nM	3.1 nM	–	–	–	CCC[C@H]1C(=O)N[C@@H]([C@@H](C)CC)C(=O)N2CCC[C@H]2C(=O)N(C)[C@H]2C/C=C\CCN(C2=O)[C@@H](Cc2ccc(C(F)(F)F)cc2)C(=O)N(C)CC(=O)N[C@@H](CCc2ccc(C(F)(F)F)c(OC)c2)C(=O)N2C[C@H](OCC)C[C@H]2C(=O)N(C)C2(CCC2)C(=O)N(C)[C@@H](C2CCCC2)C(=O)N(C)[C@H](C(=O)N(C)C)CC(=O)N1C [PP2320, (1S,4S,10S,13S,17S,20S,26S,28R,32S,38S,42Z)-20-cyclopentyl-28-ethoxy-32-[2-[3-methoxy-4-(trifluoromethyl)phenyl]ethyl]-N,N,2,14,18,21,24,36-octamethyl-10-[(1S)-1-methylpropyl]-3,9,12,15,19,22,25,31,34,37,45-undecaoxo-13-propyl-38-[[4-(trifluoromethyl)phenyl]methyl]spiro[2,8, 11,14,18,21,24,30,33,36,39-undecazatetracyclo[37.5.1.0^4,8.0^26,30]pentatetracont-42-ene-23,1'-cyclobutane]-17-carboxamide]	–	–	A (a compound having 10 or more and less than 20 is denoted as A)	A (a compound having 10 or more and less than 20 is denoted as A)	–	–
0.76 nM	–	–	–	–	–	–	–	2.2 nM	–	–	CCCOC[C@H]1C(=O)N[C@@H]([C@@H](C)CC)C(=O)N(C2CC2)CC(=O)N(C)[C@H]2C/C=C\CCN(C2=O)[C@@H](CC2CCC(F)(F)CC2)C(=O)N(C)CC(=O)N[C@@H](CCc2ccc(C(F)(F)F)c(OC)c2)C(=O)N2C[C@@H](C)C[C@H]2C(=O)N(C)C2(CCC2)C(=O)N(C)[C@@H](C2CCCC2)C(=O)N(C)[C@H](C(=O)N(C)C)CC(=O)N1C [PP2379]	A (a compound having 10 or more and less than 20 is denoted as A)	A (a compound having 10 or more and less than 20 is denoted as A)	–	–	–	–
